Where “and” joins values, the source holds several entries; their conditions need not be identical. Identical values can stand only once.

The data set can be described thus: Long-term administration on DIO mice: weight, food intake, tolerance. Conditions: for weight after the drug was administrated for 28 days: individual animals.

Description: A solution with a certain concentration was prepared from the crystal form B of the phosphate, and the administration volume was 10 mL/kg.
Experimental animals: C57BL16 mice aged for 5 weeks and weighed for about 13-16 g.
Grouping and administration scheme: the mice were fed adaptively and divided into a normal control group and a model group which were fed with high-fat feed (Research diets, D 12492). When the fasting blood glucose of the mice was greater than or equal to 7 mM, it was considered that the mice had become DIO mice. The DIO mice could be selected for the hypoglycemic effect test. The DIO mice were stratified and randomly grouped according to the blood glucose and the weight. […] The weight and the fasting blood glucose were measured weekly; the food amount, the remaining food amount and the food intake were recorded; the mice were fasted overnight at the end of administration, the blood was sampled, and the free fatty acid (NEFA), total cholesterol (TCHO), triglyceride (TG), insulin and DPPIV activity were measured by using serum.

In the case of `C[C@@H]1c2cnc(C(F)(F)F)n2CCN1C(=O)C[C@H](N)Cc1cc(F)c(F)cc1F` [DPPIV-P1, (8R)-7-[(3R)-3-amino-1-oxo-4-(2,4,5-trifluorophenyl)butyl]-5,6,7,8-tetrahydro-8-methyl-3-(trifluoromethyl)imidazo[1,5-a]pyrazine], the Food intake is 2.2 ± 0.3 g/day (0.3 mg/kg), 2.2 ± 0.3 g/day (3 mg/kg) and 2.2 ± 0.4 g/day (30 mg/kg). This molecule also had a weight (0.3 mg/kg daily, D1) of 38.9 ± 3.8 g; a weight (0.3 mg/kg daily, D7) of 37.4 ± 3.4 g; a weight (0.3 mg/kg daily, D14) of 38.2 ± 4.2 g; a weight (0.3 mg/kg daily, D21) of 40.2 ± 4.2 g; a weight (0.3 mg/kg daily, D28) of 39.5 ± 5.0 g; a weight (0.3 mg/kg, total data table of metabolic parameters (end of experiment)) of 39.5 ± 5.0 g. Also, the weight by setting is: (3 mg/kg daily, D1) 41.5 ± 3.5 g; (3 mg/kg daily, D7) 40.9 ± 4.2 g; (3 mg/kg daily, D14) 43.1 ± 4.9 g; (3 mg/kg daily, D21) 44.2 ± 5.1 g; (3 mg/kg daily, D28) 45.0 ± 5.4 g; (3 mg/kg, total data table of metabolic parameters (end of experiment)) 45.0 ± 5.4 g. The weight amounted to 41.5 ± 3.1 g (30 mg/kg daily, D1); 40.5 ± 3.0 g (30 mg/kg daily, D7); 41.2 ± 4.4 g (30 mg/kg daily, D14); 41.3 ± 3.5 g (30 mg/kg daily, D21); 42.9 ± 5.6 g (30 mg/kg daily, D28); 42.9 ± 5.6 g (30 mg/kg, total data table of metabolic parameters (end of experiment)). The “weight after the drug was administrated for 28 days” value reads like this: (0.3 mg/kg) 39.9 (2×) and 31.0 and 34.8 and 41.6 and 32.2 and 40.5 and 40.8 and 45.6 and 47.1 and 41.0; (3 mg/kg) 46.8 (2×) and 42.6 and 54.1 and 48.3 and 34.4 and 42.2 and 43.1 and 46.4 and 39.7 and 50.2; (30 mg/kg, in g) 46.6 and 36.5 and 43.6 and 36.8 and 36.7 and 39.3 and 38.7 and 48.2 and 51.8 and 48.6 and 41.0.
